# Data: US20190367449A1, “PHENYLCREATINE, ITS USE AND METHOD FOR ITS PRODUCTION” (priority 2017, published 2019)
# Legend:
# white mongrel mice = assay: Endurance of mice in the treadmill test (running to complete exhaustion); type: in vivo; conditions: for Running time of mice (M ± m): treadmill 29-31 m/min, 1 hour after administration
# Description: In order to find out whether phenylcreatine is a functional analogue of creatine, and also how much its effect is related to the strength of creatine, the functional state of the mice was assessed, namely, the body weight was measured, activity and endurance in the test on white mongrel mice were assessed-males weighing 18-22 g. Two experimental groups of mice and one control group (10 mice in each group) were selected. Initially, the animals were of equal mass. The animals were kept in accordance with the rules adopted by the European Convention for the Protection of Vertebrates used for experimental and other purposes (European Convention for the Protection of Vertebrates used for Experiments or for Other Scientific Purposes (EST No. 123), Strasbourg, 18 March 1986, M., 1990, 12 pp.). Animals were kept in standard vivarium conditions. The animals were killed by decapitation in accordance with the “Rules for carrying out work using experimental animals”, approved by order of the Ministry of Health of the USSR No. 742 of 13 Nov. 1984 (Bolshakov […] Didactic and ethical aspects of research on biomodels and on laboratory animals//Qualitative clinical practice. 2002. No. 1. P.58-61). Within 20 days, the animals received an aqueous solution of creatine in a dosage of 0.3 mg per gram of weight. […] Upon administration, the drug was dissolved in 0.3 ml of water and injected into mice through a probe into the stomach daily in the morning, on an empty stomach. The animals of the control group received a similar volume of water. Phenylcreatine was also administered for 20 days in an amount of 50 mg per kg of body weight. Endurance of mice under physical exertion was assessed according to a standard procedure (Emirova L R Potention by […] of the action of medicinal substances that increase the endurance of athletes: dis . . . medical doctor: 14.00.25. M., 2004. 125 pp.) for the duration of running in the treadmill test. The animals of each group were subjected to daily training loads in a high load power mode, which was modelled by running on a treadmill at a speed of 29-31 m/min. The duration of daily mice training was 5 minutes. Endurance of mice was tested on the 1st, 5th, 10th, 15th, 20th and 25th days of training against the background of administration of drugs (or distilled water in the control). Endurance testing was conducted under the same conditions as training. Endurance was tested 1 hour after drug administration (Petrenko E R Comparative pharmacological study of adaptogenic properties of ginseng preparations: dis . . . candidate of biological sciences: 14.00.25., St. Petersburg, 1998. 126 pp.) until fatigue, the criterion of which was the lack of reaction of mice to stimulation of the legs and tail by electric current (Stratienko E N Influence of phenylethyl substituted derivatives of 3-oxypridine on the physical working capacity of mice under conditions of hypobaric hypoxia: dis . . . . Medical Candidate of Sciences Bryansk, 1996. DSP. 201 pp.). Running time was recorded in seconds. The study was carried out at rest, an hour after the administration of creatine or phenylcreatine, and immediately after the end of the run in the treadmill. Statistical processing of data was carried out in the program Statistica, for all data groups, using the Student's criterion. The following results were obtained concerning the effect of the intake of creatine and phenylcreatine on the endurance of mice. Dosages of 10 mg of phenylcreatine per animal and 300 mg of creatine per animal were used.
# [1] = test system: supraventricular extrasystoles; assay: Holter monitoring of supraventricular extrasystoles in a person taking phenylcreatine; type: in vivo, human; conditions: 2 mg per 1 kg per day for 14 days
# Description: Additionally, the following study was carried out. Professional […] (15 years of experience in power triathlon). Supraventricular extrasystoles with a frequency of 4 times in 24 hours were observed according to holter monitoring. Extrasystoles were very poorly tolerated, there were complaints of discomfort and a decrease in the quality of life (neurosis-like condition). They took phenylcreatine in an amount of 2 mg per 1 kg per day, for 14 days.
# male Wistar rats = assay: Nootropic action in a shuttle maze, old rats; type: in vivo; conditions: old rats 25 months
# Description: The experiments were performed on male Wistar rats born in September 2014 (experiments were conducted in November 2016). The animals were kept in standard plastic cells at an air temperature of 21-23° C. They received a balanced granular food and drinking water without restrictions. The work was carried out in compliance with the principles of the Helsinki Declaration on Humane Treatment of Animals.
# Rats were divided into 2 groups. The rats of the first test group received 10 mg of phenylcreatine per animal daily for a month with drinking water. The rats of the second test group received water. As a control in the experiment, rats born in May 2016 (the third group, young rats) were used.
# In the experiment, a shuttle maze was used to evaluate neuropsychiatric processes, primarily cognitive processes (Navakatikyan M A, Platonov L L, 1988). At the end of the labyrinth there was a food reinforcement (a piece of cheese with a mass of 200 mg).
# The time of the experiment to find the exit from the labyrinth was 5 minutes. During the experiment, the time of passing the labyrinth, the number of rats reaching the end of the labyrinth, the number of vertical racks were recorded.
# [2] = test system: healthy men, having a sedentary lifestyle; conditions: loading protocol followed by 11-week maintenance; for 4-12 weeks; cited from earlier work
# [3] = test system: children and adults with craniocerebral trauma (CCT); conditions: six months, 400 mg/kg of body weight, cited from earlier work
# [4] = 15th day of the study, control 1.1 times
# [5] = 20th day of the study, control 1.4 times
# [6] = 25th day of research, control 1.7 times
# [7] = 1 d, 10 mg phenylcreatine or 300 mg creatine per animal
SMILES,Increase of running time to total fatigue (white mongrel mice; [4]) [times],Increase of running time to total fatigue (white mongrel mice; [5]) [times],Increase of running time to total fatigue (white mongrel mice; [6]) [times],Running time of mice (M ± m) (white mongrel mice; [7]) [s],Running time of mice (M ± m) (white mongrel mice; 5 d) [s],Running time of mice (M ± m) (white mongrel mice; 10 d) [s],Running time of mice (M ± m) (white mongrel mice; 15 d) [s],Running time of mice (M ± m) (white mongrel mice; 20 d) [s],Running time of mice (M ± m) (white mongrel mice; 25 d) [s],Speed of increase of the effect relative to the group receiving creatine (white mongrel mice; mice treadmill) [times],Holter monitoring within 3 months after the course [1],Extrasystoles after the course ([1]; before: 4 times in 24 hours),"Number of vertical rearings per minute (male Wistar rats; 10 mg per animal daily for a month with drinking water, untreated old rats 2±0.56)","The transit time of the labyrinth (male Wistar rats; 10 mg per animal daily for a month, untreated old rats 5±0.42) [min]","The number of rats reaching the end of the labyrinth in 5 minutes (male Wistar rats; 10 mg per animal daily for a month, untreated old rats 10%) [%]",Reduction of the glucose response in glucose tolerance test [2],Frequency of fatigue ([3]; reduced from 82.4%) [%],Frequency of dizziness ([3]; reduced from 88.9 percent) [%],Frequency of headaches ([3]; reduced from 93.8%) [%]
"N=C(N)N(CC(=O)O)Cc1ccccc1 [phenylcreatine, N-benzyl-N-carbamimidoylglycine]",6.4,6.9,6.7,588.23 ± 25,747.23 ± 17.06,1874.12 ± 114.43,3756.77 ± 97.02,4076.45 ± 276.57,3981.4 ± 202.8,2,does not fix supraventricular extrasystoles,extrasystoles completely disappeared,1.2±0.44,2 ± 0.22,50,–,–,–,–
"CN(CC(=O)O)C(=N)N [creatine, 2-(methylguanine)-ethane acid]",2.8,4.5,5.6,626.00 ± 32.25,772.60 ± 33.07,775.80 ± 37.01,1811.30 ± 85.82,2794.70 ± 103.22,3697.5 ± 1373,–,–,–,–,–,–,11-22%,11.1,43.8,11.1
